# Bridge positions count the residues as written; N and C are the ends. Square brackets hold non-standard residues; d marks the D form. Peptide text beside a SMILES is read from it. * marks the point of attachment. ξ: configuration not given here. Bip = N[C@@H](Cc1ccc(-c2ccccc2)cc1)C(=O)O; Phe(3-Me) = Cc1cccc(C[C@H](N)C(=O)O)c1; Cha = N[C@@H](CC1CCCCC1)C(=O)O; Cit = NC(=O)NCCC[C@H](N)C(=O)O; Thr(3ξ) = CC(O)[C@H](N)C(=O)O; Carboxymethyl = O=C(O)C*; Orn = NCCC[C@H](N)C(=O)O; Aun = NCCCCCCCCCCC(=O)O; Dab = NCC[C@H](N)C(=O)O; Dap = NC[C@H](N)C(=O)O; AEEA = NCCOCCOCC(=O)O
# Biological target: T1, PD-1/PD-L1 interaction (PE-labeled human PD-L1-Ig binding to Jurkat cell line over-expressing human PD-1) (Homo sapiens, UniProt Q15116)
# T1 construct: expressed in transfected cells; host or cells: Jurkat
# Assay: Jurkat-PD-1 Cell Binding High-Content Screening Assay (CBA)
# Assay type: cell-based
# Conditions: Jurkat cell line over-expressing human PD-1; PE-labeled PD-L1-Ig 20 nM final; read-out: Jurkat hPD1-PDL1 IC50
# Summary of the method: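 Jurkat cells stably over-expressing human PD-1 were seeded in DMEM with 10% fetal calf serum and pre-incubated with compound for 2 h at 37° C. PE-labeled human PD-L1-Ig was then added at 20 nM final for 1 hour, after which cells were fixed with paraformaldehyde, Hoechst-stained and imaged by high-content microscopy.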
# T1 sequence (Q15116 25-288): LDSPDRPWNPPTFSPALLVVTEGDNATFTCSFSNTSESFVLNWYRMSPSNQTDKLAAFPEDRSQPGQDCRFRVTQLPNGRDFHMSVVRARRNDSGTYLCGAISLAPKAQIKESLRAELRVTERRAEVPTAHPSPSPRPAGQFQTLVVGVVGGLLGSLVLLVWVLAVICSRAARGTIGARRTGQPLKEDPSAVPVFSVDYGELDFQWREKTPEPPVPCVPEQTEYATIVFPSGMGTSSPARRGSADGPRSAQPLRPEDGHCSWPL
row,IC50 [nM],SMILES
1,10.4,Cc1cccc(C[C@@H]2NC(=O)[C@H](CC(=O)O)NC(=O)[C@H](Cc3ccc(OCC(=O)O)cc3)NC(=O)[C@H](CN)NC(=O)CSC[C@@H](C(=O)N[C@@H](CCN)C(=O)NCCOCCOCC(=O)NCCCCCCCCCCC(=O)O)NC(=O)[C@H](CCCN)NC(=O)[C@H](C(C)C)NC(=O)[C@H](CC3CCCCC3)NC(=O)[C@H](CCN)NC(=O)[C@@H](CC(C)C)NC(=O)[C@H](CCCN)NC(=O)[C@H](Cc3ccc(O)cc3)NC(=O)[C@H](Cc3ccc(-c4ccccc4)cc3)NC(=O)[C@H](Cc3ccc(O)cc3)NC2=O)c1 [Compound 2576] ({CH2CO}-[Dap]Y(Carboxymethyl)D[Phe(3-Me)]Y[Bip]Y[Orn][dL][Dab][Cha]V[Orn]C[Dab][AEEA][Aun]-OH; thioether N-14)
2,34,Cc1cccc(C[C@@H]2NC(=O)[C@H](CC(=O)O)NC(=O)[C@H](Cc3ccc(OCC(=O)O)cc3)NC(=O)[C@H](CN)NC(=O)CSC[C@@H](C(=O)N[C@@H](CCN)C(=O)NCCOCCOCC(=O)NCCCCCCCCCCC(=O)O)NC(=O)[C@H](C(C)O)NC(=O)[C@H](Cc3ccc(O)cc3)NC(=O)[C@H](CC3CCCCC3)NC(=O)[C@H](CCN)NC(=O)[C@@H](CC(C)C)NC(=O)[C@H](CCCN)NC(=O)[C@H](Cc3ccc(O)cc3)NC(=O)[C@H](Cc3ccc(-c4ccccc4)cc3)NC(=O)[C@H](C(C)C)NC2=O)c1 (stereo partly drawn) [Compound 2577] ({CH2CO}-[Dap]Y(Carboxymethyl)D[Phe(3-Me)]V[Bip]Y[Orn][dL][Dab][Cha]Y[Thr(3ξ)]C[Dab][AEEA][Aun]-OH; thioether N-14)
3,10.7,Cc1cccc(C[C@@H]2NC(=O)[C@H](CC(=O)O)NC(=O)[C@H](Cc3ccc(OCC(=O)O)cc3)NC(=O)[C@H](CN)NC(=O)CSC[C@@H](C(=O)N[C@@H](CCN)C(=O)NCCOCCOCC(=O)NCCCCCCCCCCC(=O)O)NC(=O)[C@H](CCCN)NC(=O)[C@H](Cc3ccc(O)cc3)NC(=O)[C@H](CC3CCCCC3)NC(=O)[C@H](CCN)NC(=O)[C@@H](CC(C)C)NC(=O)[C@H](CCCN)NC(=O)[C@H](Cc3ccc(O)cc3)NC(=O)[C@H](Cc3ccc(-c4ccccc4)cc3)NC(=O)[C@H](C(C)C)NC2=O)c1 [Compound 2578] ({CH2CO}-[Dap]Y(Carboxymethyl)D[Phe(3-Me)]V[Bip]Y[Orn][dL][Dab][Cha]Y[Orn]C[Dab][AEEA][Aun]-OH; thioether N-14)
4,11.8,Cc1cccc(C[C@@H]2NC(=O)[C@H](CC(=O)O)NC(=O)[C@H](Cc3ccc(OCC(=O)O)cc3)NC(=O)[C@H](CN)NC(=O)CSC[C@@H](C(=O)N[C@@H](CCN)C(=O)NCCOCCOCC(=O)NCCCCCCCCCCC(=O)O)NC(=O)[C@H](C(C)O)NC(=O)[C@H](C(C)C)NC(=O)[C@H](CC3CCCCC3)NC(=O)[C@H](CCN)NC(=O)[C@@H](CC(C)C)NC(=O)[C@H](CCCN)NC(=O)[C@H](CCCNC(N)=O)NC(=O)[C@H](Cc3ccc(-c4ccccc4)cc3)NC(=O)[C@H](Cc3ccc(O)cc3)NC2=O)c1 (stereo partly drawn) [Compound 2579] ({CH2CO}-[Dap]Y(Carboxymethyl)D[Phe(3-Me)]Y[Bip][Cit][Orn][dL][Dab][Cha]V[Thr(3ξ)]C[Dab][AEEA][Aun]-OH; thioether N-14)
5,7.7,Cc1cccc(C[C@@H]2NC(=O)[C@H](CC(=O)O)NC(=O)[C@H](Cc3ccc(OCC(=O)O)cc3)NC(=O)[C@H](CN)NC(=O)CSC[C@@H](C(=O)N[C@@H](CCN)C(=O)NCCOCCOCC(=O)NCCCCCCCCCCC(=O)O)NC(=O)[C@H](CCCN)NC(=O)[C@H](C(C)C)NC(=O)[C@H](CC3CCCCC3)NC(=O)[C@H](CCN)NC(=O)[C@@H](CC(C)C)NC(=O)[C@H](CCCN)NC(=O)[C@H](CCCNC(N)=O)NC(=O)[C@H](Cc3ccc(-c4ccccc4)cc3)NC(=O)[C@H](Cc3ccc(O)cc3)NC2=O)c1 [Compound 2580] ({CH2CO}-[Dap]Y(Carboxymethyl)D[Phe(3-Me)]Y[Bip][Cit][Orn][dL][Dab][Cha]V[Orn]C[Dab][AEEA][Aun]-OH; thioether N-14)
6,21.4,Cc1cccc(C[C@@H]2NC(=O)[C@H](CC(=O)O)NC(=O)[C@H](Cc3ccc(OCC(=O)O)cc3)NC(=O)[C@H](CN)NC(=O)CSC[C@@H](C(=O)N[C@@H](CCN)C(=O)NCCOCCOCC(=O)NCCCCCCCCCCC(=O)O)NC(=O)[C@H](C(C)O)NC(=O)[C@H](C(C)C)NC(=O)[C@H](CC3CCCCC3)NC(=O)[C@H](CCN)NC(=O)[C@@H](CC(C)C)NC(=O)[C@H](CCCN)NC(=O)[C@H](C(C)C)NC(=O)[C@H](Cc3ccc(-c4ccccc4)cc3)NC(=O)[C@H](Cc3ccc(O)cc3)NC2=O)c1 (stereo partly drawn) [Compound 2581] ({CH2CO}-[Dap]Y(Carboxymethyl)D[Phe(3-Me)]Y[Bip]V[Orn][dL][Dab][Cha]V[Thr(3ξ)]C[Dab][AEEA][Aun]-OH; thioether N-14)
7,9.5,Cc1cccc(C[C@@H]2NC(=O)[C@H](CC(=O)O)NC(=O)[C@H](Cc3ccc(OCC(=O)O)cc3)NC(=O)[C@H](CN)NC(=O)CSC[C@@H](C(=O)N[C@@H](CCN)C(=O)NCCOCCOCC(=O)NCCCCCCCCCCC(=O)O)NC(=O)[C@H](CCCN)NC(=O)[C@H](C(C)C)NC(=O)[C@H](CC3CCCCC3)NC(=O)[C@H](CCN)NC(=O)[C@@H](CC(C)C)NC(=O)[C@H](CCCN)NC(=O)[C@H](C(C)C)NC(=O)[C@H](Cc3ccc(-c4ccccc4)cc3)NC(=O)[C@H](Cc3ccc(O)cc3)NC2=O)c1 [Compound 2582] ({CH2CO}-[Dap]Y(Carboxymethyl)D[Phe(3-Me)]Y[Bip]V[Orn][dL][Dab][Cha]V[Orn]C[Dab][AEEA][Aun]-OH; thioether N-14)
8,32.3,Cc1cccc(C[C@@H]2NC(=O)[C@H](CC(=O)O)NC(=O)[C@H](Cc3ccc(OCC(=O)O)cc3)NC(=O)[C@H](CN)NC(=O)CSC[C@@H](C(=O)N[C@@H](CCN)C(=O)NCCOCCOCC(=O)NCCCCCCCCCCC(=O)O)NC(=O)[C@H](C(C)O)NC(=O)[C@H](Cc3ccc(O)cc3)NC(=O)[C@H](CC3CCCCC3)NC(=O)[C@H](CCN)NC(=O)[C@@H](CC(C)C)NC(=O)[C@H](CCCN)NC(=O)[C@H](CCCNC(N)=O)NC(=O)[C@H](Cc3ccc(-c4ccccc4)cc3)NC(=O)[C@H](C(C)C)NC2=O)c1 (stereo partly drawn) [Compound 2583] ({CH2CO}-[Dap]Y(Carboxymethyl)D[Phe(3-Me)]V[Bip][Cit][Orn][dL][Dab][Cha]Y[Thr(3ξ)]C[Dab][AEEA][Aun]-OH; thioether N-14)
9,17.9,Cc1cccc(C[C@@H]2NC(=O)[C@H](CC(=O)O)NC(=O)[C@H](Cc3ccc(OCC(=O)O)cc3)NC(=O)[C@H](CN)NC(=O)CSC[C@@H](C(=O)N[C@@H](CCN)C(=O)NCCOCCOCC(=O)NCCCCCCCCCCC(=O)O)NC(=O)[C@H](CCCN)NC(=O)[C@H](Cc3ccc(O)cc3)NC(=O)[C@H](CC3CCCCC3)NC(=O)[C@H](CCN)NC(=O)[C@@H](CC(C)C)NC(=O)[C@H](CCCN)NC(=O)[C@H](CCCNC(N)=O)NC(=O)[C@H](Cc3ccc(-c4ccccc4)cc3)NC(=O)[C@H](C(C)C)NC2=O)c1 [Compound 2584] ({CH2CO}-[Dap]Y(Carboxymethyl)D[Phe(3-Me)]V[Bip][Cit][Orn][dL][Dab][Cha]Y[Orn]C[Dab][AEEA][Aun]-OH; thioether N-14)
10,27,Cc1cccc(C[C@@H]2NC(=O)[C@H](CC(=O)O)NC(=O)[C@H](Cc3ccc(OCC(=O)O)cc3)NC(=O)[C@H](CN)NC(=O)CSC[C@@H](C(=O)N[C@@H](CCN)C(=O)NCCOCCOCC(=O)NCCCCCCCCCCC(=O)O)NC(=O)[C@H](C(C)O)NC(=O)[C@H](Cc3ccc(O)cc3)NC(=O)[C@H](CC3CCCCC3)NC(=O)[C@H](CCN)NC(=O)[C@@H](CC(C)C)NC(=O)[C@H](CCCN)NC(=O)[C@H](C(C)C)NC(=O)[C@H](Cc3ccc(-c4ccccc4)cc3)NC(=O)[C@H](C(C)C)NC2=O)c1 (stereo partly drawn) [Compound 2585] ({CH2CO}-[Dap]Y(Carboxymethyl)D[Phe(3-Me)]V[Bip]V[Orn][dL][Dab][Cha]Y[Thr(3ξ)]C[Dab][AEEA][Aun]-OH; thioether N-14)
11,22.2,Cc1cccc(C[C@@H]2NC(=O)[C@H](CC(=O)O)NC(=O)[C@H](Cc3ccc(OCC(=O)O)cc3)NC(=O)[C@H](CN)NC(=O)CSC[C@@H](C(=O)N[C@@H](CCN)C(=O)NCCOCCOCC(=O)NCCCCCCCCCCC(=O)O)NC(=O)[C@H](CCCN)NC(=O)[C@H](Cc3ccc(O)cc3)NC(=O)[C@H](CC3CCCCC3)NC(=O)[C@H](CCN)NC(=O)[C@@H](CC(C)C)NC(=O)[C@H](CCCN)NC(=O)[C@H](C(C)C)NC(=O)[C@H](Cc3ccc(-c4ccccc4)cc3)NC(=O)[C@H](C(C)C)NC2=O)c1 [Compound 2586] ({CH2CO}-[Dap]Y(Carboxymethyl)D[Phe(3-Me)]V[Bip]V[Orn][dL][Dab][Cha]Y[Orn]C[Dab][AEEA][Aun]-OH; thioether N-14)
12,8.8,Cc1cccc(C[C@@H]2NC(=O)[C@H](CC(=O)O)NC(=O)[C@H](Cc3ccc(OCC(=O)O)cc3)NC(=O)[C@H](CN)NC(=O)CSC[C@@H](C(=O)N[C@@H](CCN)C(=O)NCCOCCOCC(=O)NCCCCCCCCCCC(=O)O)NC(=O)[C@H](C(C)O)NC(=O)[C@H](C(C)C)NC(=O)[C@H](CC3CCCCC3)NC(=O)[C@H](CCN)NC(=O)[C@@H](CC(C)C)NC(=O)[C@H](CCCN)NC(=O)[C@H](Cc3ccc(O)cc3)NC(=O)[C@H](Cc3ccc(-c4ccccc4)cc3)NC(=O)[C@H](C(C)C)NC2=O)c1 (stereo partly drawn) [Compound 2587] ({CH2CO}-[Dap]Y(Carboxymethyl)D[Phe(3-Me)]V[Bip]Y[Orn][dL][Dab][Cha]V[Thr(3ξ)]C[Dab][AEEA][Aun]-OH; thioether N-14)
13,5.3,Cc1cccc(C[C@@H]2NC(=O)[C@H](CC(=O)O)NC(=O)[C@H](Cc3ccc(OCC(=O)O)cc3)NC(=O)[C@H](CN)NC(=O)CSC[C@@H](C(=O)N[C@@H](CCN)C(=O)NCCOCCOCC(=O)NCCCCCCCCCCC(=O)O)NC(=O)[C@H](CCCN)NC(=O)[C@H](C(C)C)NC(=O)[C@H](CC3CCCCC3)NC(=O)[C@H](CCN)NC(=O)[C@@H](CC(C)C)NC(=O)[C@H](CCCN)NC(=O)[C@H](Cc3ccc(O)cc3)NC(=O)[C@H](Cc3ccc(-c4ccccc4)cc3)NC(=O)[C@H](C(C)C)NC2=O)c1 [Compound 2588] ({CH2CO}-[Dap]Y(Carboxymethyl)D[Phe(3-Me)]V[Bip]Y[Orn][dL][Dab][Cha]V[Orn]C[Dab][AEEA][Aun]-OH; thioether N-14)
